We go through one molecule from US20220031629A1, “OPHTHALMIC COMPOSITIONS FOR REMOVING MEIBUM OR INHIBITING MEIBUM BUILDUP” (Altaire Pharmaceuticals, Inc., priority 2020, published 2022).

The series deals with normal human keratinocytes/stratified squamous epithelium (EPIOCULAR model). In words: Ocular irritation MTT assay (EPIOCULAR model). Type of series: cell-based. As to the method: Another ocular irritation study was done by exposing a microemulsion containing polyoxyl 35 castor oil in accordance with an embodiment of the present disclosure onto normal human keratinocytes/stratified squamous epithelium which is similar to that found in the cornea epithelium of the human eye (EPIOCULAR model), and then checking tissue viability with MTT assay for cytotoxicity after incubation in comparison with a water control (Cyprotex).
On the technique in general: Formazan colour is commonly taken as a measure of viable cells.

Regarding `COC(C)=O` [Methyl Acetate], the “Irritation Response (Irritant if ≤ 60%)” value (MTT assay) is “Positive”. The “Mean Tissue Viability” value (MTT assay after incubation, in comparison with water control) turned out to be 31.1%.
